{
  "source": "patent US11203754B2",
  "about": "“Microrna compositions and methods of making and using same” (Advanced ReGen Medical Technologies, LLC, priority 2016, dated 2021)",
  "key": {"miRNAs in exosomes": {"test_system": "miRNAs in exosomes", "assay": "miRNA depletion in exosomes harvested from the heterochronic culture", "format": "cell-based", "protocol": "(§1) Exosomes were collected and quantified to determine the effects of inhibitors on exosome production while RNA extracted from the exosomes were analyzed to determine exosome depletion and levels of RNA depletion.\n(§2) SNORD68 and SNORD95 are small nucleolar RNAs."}, "SNORD68": {"test_system": "SNORD68", "assay": "Exosomal RNA (ExoRNA) level, SNORD68, with inhibitors", "format": "cell-based", "details": "BCI-137 10 μM, GW4869 3.5 μM; NONE = 1", "protocol": "as §1, §2"}, "SNORD95": {"test_system": "SNORD95", "assay": "Exosomal RNA (ExoRNA) level, SNORD95, with inhibitors", "format": "cell-based", "details": "BCI-137 10 μM, GW4869 3.5 μM; NONE = 1", "protocol": "as §1, §2"}, "CD34+ cells [1]": {"test_system": "CD34+ cells", "assay": "Effect of inhibitor on CD34+ differentiation potential and restoration", "format": "cell-based", "from_the_text": "as §2"}, "[2]": {"test_system": "adult stem cells in transwell culture", "assay": "Exosome production in transwell cultures with exosome inhibitors", "format": "cell-based", "details": "BCI-137 10 μM, GW4869 3.5 μM, added Day 0 and Day 3, NONE = 710", "protocol": "A series of transwell experiments were carried out by placing adult stem cells of a donor subject (i.e., donor cells) in the upper chamber of a transwell assembly while the adult stem cells of a receiver subject (i.e. receiver cells) were placed in the lower chamber. Referring to FIG. 2, the transwell culture 400 comprised an insert 410 having a permeable surface that allows the donor cells to uptake and secrete molecules on the basal and/or apical surfaces of the transwell. The transwell insert 410 comprised a permeable membrane with a 0.4 μm pore size. At least a portion of the donor cell sample 420 was applied to the transwell insert 410 while the receiver cell sample 430 was positioned within the lower compartment of the transwell culture with an appropriate amount of culture media.\nas §1"}, "CD34+ cells [3]": {"test_system": "CD34+ cells", "assay": "Effect of inhibitors on cell function (total cell vitality, CD34+ cell vitality, CD34+ cell expansion)", "details": "inhibitor added to transwell culture", "procedure": "(§3) To the transwell cultures was added either a pharmacological inhibitor of exosome biogenesis GW4869 (3.5 μM) or an inhibitor of exosome packaging BCI-137 (10 μM). […] Inhibitors were added to the transwell cultures upon initial seeding (Day 0) and again at Day 3.\n(§4) Further analysis of the effect of the inhibitors on cell function was assessed by determining the total cell vitality, the CD34+ cell vitality and the extent of CD34+ cell expansion."}, "CD34+ cells [4]": {"test_system": "CD34+ cells", "procedure": "as §3, §4"}, "CD34+ stem cell": {"test_system": "CD34+ stem cell", "assay": "microRNA nucleofection into mature blood cells: CD34+ clonogenicity (CFU-GM)", "format": "cell-based, human", "details": "Table 8 Experiment #1; total 60 nM into mature blood cells; siRNA vehicle = 20, No Treatment = 10", "protocol": "Candidate microRNAs involved in facilitating adoptive cellular restoration therapy were miR-146a, miR-103a, miR-106a and miR-19a. Combinations of candidate microRNAs were nucleofected at a total concentration of 60 nM into mature blood cells using the CD34+ cell human nucleofector kit (Lonza) and the human CD34+ cell protocol, and effect on CD34+ stem cell vitality and clonogenicity were evaluated compared to siRNA vehicle control. Further, the microRNA combination of miR-103a, miR-106b and miR-19a were nucleofected at a total concentration of 90 nM into mature blood cells using the P3 Primary Cell 4D-Nucleofector X Kit (Lonza) and the human T cell high efficiency protocol, and effect on T cell activation and cell-mediated cytotoxicity were evaluated compared to siRNA vehicle control. Additional candidate microRNAs involved in facilitating adoptive cellular restoration therapy identified were miR-1303, miR-7851-3p, miR-223, miR-4497, miR-619-5p and miR-1273f. Combinations of these additional candidate microRNAs were nucleofected at a total concentration of 60 nM into mature blood cells using the CD34+ cell human nucleofector kit (Lonza) and the human CD34+ cell protocol, and effect on CD34+ clonogenicity was evaluated compared to siRNA vehicle control."}},
  "data": [
    {"compound": "CC(NS(=O)(=O)c1ccc2[nH]c(=O)c(=O)[nH]c2c1)C(=O)O", "note": "(stereo not shown) [BCI-137]", "values": [
      {"measurement": "depletion of miRNAs in exosomes", "setting": "miRNAs in exosomes", "result": "effectively depleted miRNAs"},
      {"measurement": "Fold Change in ExoRNA SNORD68", "setting": "SNORD68", "result": 0.24, "unit": "Fold Change"},
      {"measurement": "Fold Change in ExoRNA SNORD95", "setting": "SNORD95", "result": 0.33, "unit": "Fold Change"},
      {"measurement": "restorative effects of adoptive cell restoration", "setting": "CD34+ cells [1]; inhibition by BCI-137", "result": "blocked the restorative effects"},
      {"measurement": "differentiation in CD34+ heterochronic cells", "setting": "CD34+ cells [1]; inhibition with BCI-137", "result": "decreased"},
      {"measurement": "differentiation potential in the CD34+ mature cells", "setting": "CD34+ cells [1]; inhibition with BCI-137", "result": "increased"},
      {"measurement": "Exosome Production (# exosomes × 10^8)", "setting": "[2]", "result": "604 # exosomes × 10^8"},
      {"measurement": "effect on the juvenile or mature cell health", "setting": "CD34+ cells [3]", "result": "no effect"}
    ]},
    {"compound": "O=C(/C=C/c1ccc(/C=C/C(=O)Nc2ccc(C3=NCCN3)cc2)cc1)Nc1ccc(C2=NCCN2)cc1", "note": "[GW4869]", "values": [
      {"measurement": "depletion of miRNAs in exosomes", "setting": "miRNAs in exosomes", "result": "effectively depleted miRNAs"},
      {"measurement": "toxicity to CD34+ cells", "setting": "CD34+ cells [4]", "result": "appeared toxic"},
      {"measurement": "Fold Change in ExoRNA SNORD68", "setting": "SNORD68", "result": 0.43, "unit": "Fold Change"},
      {"measurement": "Fold Change in ExoRNA SNORD95", "setting": "SNORD95", "result": 0.67, "unit": "Fold Change"},
      {"measurement": "Exosome Production (# exosomes × 10^8)", "setting": "[2]", "result": "558 # exosomes × 10^8"}
    ]},
    {"compound": "miR-223: isolated microRNA miR-223-5p (SEQ ID NO:5) (CGUGUAUUUGACAAGCUGAGUU; listed as RNA, chemistry not given here; listed as Homo sapiens)", "values": [
      {"measurement": "CD34+ Differentiation (# CFU-GM)", "setting": "CD34+ stem cell", "result": "10 # CFU-GM"}
    ]},
    {"compound": "miR-619-5p: isolated microRNA miR-619-5p (SEQ ID NO:8) (GCUGGGAUUACAGGCAUGAGCC; listed as RNA, chemistry not given here; listed as Homo sapiens)", "values": [
      {"measurement": "CD34+ Differentiation (# CFU-GM)", "setting": "CD34+ stem cell", "result": "46 # CFU-GM"}
    ]},
    {"compound": "miR-1273f: isolated microRNA miR-1273f (SEQ ID NO:9) (GGAGAUGGAGGUUGCAGUG; listed as RNA, chemistry not given here; listed as Homo sapiens)", "values": [
      {"measurement": "CD34+ Differentiation (# CFU-GM)", "setting": "CD34+ stem cell", "result": "9 # CFU-GM"}
    ]},
    {"compound": "miR-1303: isolated microRNA miR-1303 (SEQ ID NO:7) (UUUAGAGACGGGGUCUUGCUCU; listed as RNA, chemistry not given here; listed as Homo sapiens)", "values": [
      {"measurement": "CD34+ Differentiation (# CFU-GM)", "setting": "CD34+ stem cell", "result": "32 # CFU-GM"}
    ]},
    {"compound": "miR-4497: isolated microRNA miR-4497 (SEQ ID NO:6) (CUCCGGGACGGCUGGGC; listed as RNA, chemistry not given here; listed as Homo sapiens)", "values": [
      {"measurement": "CD34+ Differentiation (# CFU-GM)", "setting": "CD34+ stem cell", "result": "20 # CFU-GM"}
    ]},
    {"compound": "miR-7851-3p: isolated microRNA miR-7851-3p (SEQ ID NO:10) (UACCUGGGAGACUGAGGUUGGA; listed as RNA, chemistry not given here; listed as Homo sapiens)", "values": [
      {"measurement": "CD34+ Differentiation (# CFU-GM)", "setting": "CD34+ stem cell", "result": "14 # CFU-GM"}
    ]}
  ]
}
